Assays:
mice [1] = test: Acute toxicity in mouse; format: in vivo; settings: for no-effect dose: mouse, in vivo
rat H3R = molecular target: T1, rat H3R (Rattus norvegicus, UniProt Q9QYN8); test: A23187-evoked [3H]arachidonic acid release from CHO cells expressing rat H3R; format: cell-based; settings: 1 μM, rat H3R 300-400 fmol/mg protein
T1 construct: expressed in transfected cells; host or cells: CHO cells

rats = test: Acute toxicity in rat; format: in vivo; settings: for no-effect dose: in vivo
mice [2] = test: Electroshock in mice (maximal electroshock seizure model); format: in vivo, mouse; settings: 100 mg/kg, p.o.; test 60 min after dosing
Human H1R = Human H1R (Homo sapiens, UniProt P35367); test: Specific [3H]mepyramine binding at recombinant human H1 receptors expressed in HEK293 cells; settings: read-out: Ki or IC50, Human H1R
Sequence of Human H1R (P35367 whole entry): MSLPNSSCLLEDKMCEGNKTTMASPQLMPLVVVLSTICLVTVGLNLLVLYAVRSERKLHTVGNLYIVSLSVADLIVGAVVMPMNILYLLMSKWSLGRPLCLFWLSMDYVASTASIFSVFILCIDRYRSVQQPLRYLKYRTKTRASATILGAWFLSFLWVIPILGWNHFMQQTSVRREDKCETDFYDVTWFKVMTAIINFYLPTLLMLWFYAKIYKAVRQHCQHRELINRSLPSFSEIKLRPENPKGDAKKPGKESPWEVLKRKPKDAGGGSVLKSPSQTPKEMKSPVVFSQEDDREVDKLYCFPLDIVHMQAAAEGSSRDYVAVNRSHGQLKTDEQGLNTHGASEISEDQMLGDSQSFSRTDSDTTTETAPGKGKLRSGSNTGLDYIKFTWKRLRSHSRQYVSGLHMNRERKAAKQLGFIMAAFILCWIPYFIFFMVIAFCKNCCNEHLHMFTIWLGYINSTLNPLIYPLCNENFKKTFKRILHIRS

GAERS rats = test: Absence epilepsy in GAERS rat; format: in vivo
Description: A strain of Wistar rats with spontaneously generalized non convulsive seizures (absence seizures) has been developed in Strasbourg (Genetic Absence Epilepsy Rats of Strasbourg or GAERS). Seizures are characterized by bilateral and synchronous spike-and-wave discharges (7-9 Hz) on EEG, concomitant with behavioral arrests. These discharges generally last about 20 sec and occur spontaneously every minute when the animals are in a state of quiet wakefulness. Pharmacological reactivity of this model is similar to human absence-epilepsy (e.g., valproate and ethosuccimide are protective). After a recovery period, implanted rats (cortical and hippocampal EEG electrodes) were recorded over a 20 min reference period. […] Rats received the alternative treatment one week later. Cumulated duration of absence-seizures was measured by 20 min periods during the two sessions. Fast Fourier transform analysis of EEG recording allowed detection of any rhythm change during both ictal and inter-ictal periods (background activity).

mice [3] = test: Natural forgetting, two-trial object recognition; format: in vivo, mouse
Procedure: Methods: Mice were submitted to the first trial (T1), placed in the box containing two identical objects and the time required by each animal to complete 8 sec of object exploration was determined. Exploration was considered to be directing the nose at a distance closer than 2 cm to the object and/or touching the object. Immediately after the first trial mice were treated with the vehicle or tacrine (0.25 mg/kg, i.p.). […] Mice were placed in the box for 5 min and exploration of each object together with motor activity was determined. The following parameters were measured: […]

cats = test: Sleep-wake cycle study in cats (EEG/EMG); format: in vivo, cat
Procedure: Animals were chronically implanted with cortical and muscle electrodes to record EEG and EMG respectively, to allow monitoring their sleep-wake cycle. After recovery from surgery, animals were housed individually in a sound-proof recorded room maintaining at appropriate ambient temperature on a 12 h light/dark cycle. Polygraphic recordings were performed during 4 days to collect reference qualitative and quantitative data of sleep-wake control in each individual. Then, pharmacological evaluation was performed over 24 h sessions and analyzed by successive 30 sec epochs. Wakefulness and sleep states were identified as previously described for cats [Petitjean et al., Brain Res., 1975, 88: 439-53] and mice [[…] and Bugat, Brain Res., 1974, 69: 315-30]. Polygraphic recordings were started 7 days after surgery. Sleep-wake recording criteria included wakefulness (W), light slow wave sleep (SWS1), deep […]2) and paradoxical sleep (PS). Spectral analysis of EEG was performed by Fast-Fourier Transform in the frequency bands 0.8-2.5 Hz ([delta] slow waves), 8-15 Hz (spindles) and 20-45 Hz ([beta] and [gamma] rapid waves).

mice [4] = test: Scopolamine-induced learning deficit, two-trial object recognition; format: in vivo, mouse; settings: i.p., scopolamine 0.3 mg/kg i.p.
Procedure: Lett., 1994, 170, 117-120; Bartolini et al., Biochem. Nehav., 1996, 53, 277-283]. Methods: Mice were allowed to explore a box for 30 min in the presence of two objects. The day after, mice were submitted to two trials spaced by an interval of 60 min. During the first trial (T1), mice were placed in the box containing the two identical objects and the time required by each animal to complete 20 sec of object exploration was determined. Exploration was considered to be directing the nose at a distance closer than 2 cm to the object and/or touching the object. For the second trial (T2), one of the objects presented in the first trial was replaced by and unknown novel object. Mice were placed in the box for 5 min and exploration of each object together with motor activity was determined. The following parameters were measured.

mice [5] = test: Kainate-induced temporal lobe seizures in mice; format: in vivo, mouse
Procedure: Unilateral injection of kainic acid (1 nmol in […]) into the dorsal hippocampus in mice induces a non-convulsive status that results in spontaneous recurrent focal seizures after 2-3 weeks. Seizures (5 to 20 times per hour in quiet mice) are characterized by a behavioral arrest and/or stereotypies, concomitant with spike and poly-spike discharges recorded in the injected hippocampus. All AEDs tested in this model (valproate, carbamazepine, phenytoin, levetiracetam) are without significant effects, except benzodiazepines which transiently suppress seizures. This model reproduces the behavioral, EEG, pharmacological and histological characteristics of mesial temporal lobe epilepsy, a form of epilepsy which is often drug-resistant in humans. After a recovery period, implanted mice (for EEG recording) were injected with kainic acid. They were EEG recorded at least 3 weeks after injection for selection of animals with consistent hippocampal seizure. Then, after a 20 min reference recording period, selected mice received either 1-[3-[3-(4-chlorophenyl)propoxy]propyl]piperidine monohydrochloride (10 or 20 mg/kg, i.p.) or saline and the recording was continued for 60 min. Treatments were given in a counter balanced order (after a one week washout period between two sessions).

T1 sequence (Q9QYN8 whole entry): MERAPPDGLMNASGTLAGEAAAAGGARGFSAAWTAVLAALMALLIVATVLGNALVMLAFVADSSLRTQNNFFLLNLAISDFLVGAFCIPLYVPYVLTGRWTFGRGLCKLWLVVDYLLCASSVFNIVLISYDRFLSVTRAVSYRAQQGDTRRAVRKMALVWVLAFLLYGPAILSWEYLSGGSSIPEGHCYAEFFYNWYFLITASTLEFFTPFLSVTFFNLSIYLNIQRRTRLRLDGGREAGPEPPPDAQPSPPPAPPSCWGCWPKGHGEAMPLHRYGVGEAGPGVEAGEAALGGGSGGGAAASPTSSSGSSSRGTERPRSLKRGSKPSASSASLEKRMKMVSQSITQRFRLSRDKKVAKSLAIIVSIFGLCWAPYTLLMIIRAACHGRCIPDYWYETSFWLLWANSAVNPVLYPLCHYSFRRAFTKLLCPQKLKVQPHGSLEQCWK

`Cl.Clc1ccc(CCCOCCCN2CCCCC2)cc1` [1-[3-[3-(4-chlorophenyl)propoxy]propyl]-piperidine monohydrochloride] was tested, and the “maximum non lethal dose” value (mice [1]; mice) was 100 mg/kg, the minimum lethal dose (mice [1]; mice, i.v.) was 10 mg/kg and the minimum lethal dose (mice [1]; mice, p.o.) was 150 mg/kg. For the same compound, the no-effect dose (mice [1]; iv) was over 5 mg/kg, the no-effect dose (mice [1]; po) was over 30 mg/kg and the “decrease of the A23187-evoked [3H]AA release” value (rat H3R) was 40%. For the same compound, the no-effect dose (rats; iv) was 12 mg/kg, the no-effect dose (rats; po) was over 50 mg/kg and the “maximum non lethal oral dose” value (rats; oral) was 100 mg/kg. The “protection in the maximal electroshock seizure model” value (mice [2]) was “complete protection”, the Ki (Human H1R) was 1140 nM and the “reduction of cumulated duration of spike-and-wave discharges vs. saline” value (GAERS rats; 5 mg/kg, i.p.) was 25%. The “reduction of cumulated duration of spike-and-wave discharges vs. saline” value (GAERS rats; 20 mg/kg, i.p.) was 77%, the “number and cumulated durations of spike and wave discharges” value (GAERS rats; 20 mg/kg, i.p., 20, 40 and 60 min after administration) was “significantly decreased” and the “EEG background activity (spectral analysis of inter-ictal periods)” value (GAERS rats; epilepsy models) was “not associated with significant change in EEG background activity”. For the same compound, the “natural forgetting, association with tacrine” value (mice [3]; 15 mg/kg i.p. together with tacrine 0.25 mg/kg i.p.) was “without change in the tacrine effect”, the natural forgetting (mice [3]; 15 mg/kg, i.p., 30 min before T1) was “significantly reduced” and the “time animals almost permanently wakeful” value (cats; 10 mg/kg oral) was 6 to 12 h. The “increase in W duration” value (cats; 10 mg/kg oral, 6 h recording period) was 79%, the “animal behavior after treatment” value (cats; oral) was “No major change in the animal behavior” and the “awakening (W) at the expense of SWS and PS” value (cats; oral, 5 or 10 mg/kg) was “dose-dependent increase in awakening”. The “reversal of scopolamine-induced amnesia” value (mice [4]; 5 mg/kg) was “a reversal trend appeared without being significant”, the “reversal of scopolamine-induced amnesia” value (mice [4]; 15 mg/kg) was “significantly (p=0.0056) reversed” and the “cumulated duration and number of hippocampal discharges” value (mice [5]; 10 mg/kg, i.p., first 40 min after administration) was “reduced”. For the same compound, the “cumulated duration of hippocampal discharges” value (mice [5]; 20 mg/kg i.p., at 60 min) was “also reduced”.

Reference: US8354430B2, “Monohydrochloride salt of 1-[3-[3-(4-chlorophenyl) propoxy]propyl]-piperidine” (priority 2005, dated 2013)
